Source: patent US4100291A, “Novel 1,4-benzodioxanes” (Roussel Uclaf, priority 1976, dated 1978)
Where a name gives a salt, the structure may show the parent alone.

Legend:
[1] = Acute toxicity in mice, intraperitoneal (Table I); conditions: mouse, in vivo, ip, suspension in carboxymethylcellulose, observed one week
Text: The results are in Table I.

[2] = tested on: carotidine arterial pressure; test: Hypotensive activity in anesthetized rats, intravenous (Table II); assay type: in vivo, male rats of the Sprague-Dawley SPF strain; conditions: for % Variation in pressure: compared to initial carotid arterial pressure; for Duration of Activity: time for pressure to return to initial value
Protocol: The hypotensive activity was determined on male rats of the Sprague-Dawley SPF strain weighing about 300 g which had been anestesized with nembutal (50 mg/kg intraveinously). The product was administered intraveinously by the jugular vein and the carotidine arterial pressure was measured before and after the administration of the test product. Table II reports the variations expressed in percent of arterial pressure after administration of the test product as compared to the initial arterial pressure as well as the time necessary for the pressure to return to the initial value.

[3] = tested on: arterial pressure measured at the rat's tail; test: Antihypertensive activity in spontaneous hypertensive rats, oral (Table III); assay type: in vivo, spontaneous hypertendus male rats of the Okamoto strain
Protocol: The antihypertensive activity was determined on spontaneous hypertendus male rats of the Okamoto strain 8 weeks old and the test products were orally administered daily for 9 days. The arterial pressure was measured at the rat's tail by means of a pneumatic collar connected to an electronic transducer of pressure.

[4] = daily dose 50 mg/kg oral, 1st Day, 1 hr after 1st ad.
[5] = daily dose 50 mg/kg oral, 1st Day, 4 hr. after

Structure (SMILES) | LD50 at 168 h [1] | % Variation in pressure ([2]; 1 mg/kg) | Duration of Activity ([2]; 1 mg/kg) | % Pressure variation [3, 4] | % Pressure variation [3, 5] | further results
OC(CN1CCC(c2c[nH]c3ccccc23)CC1)C1COc2ccccc2O1 (racemic) [Example 1, (d,l) erythro α-(2,3-dihydro-1,4-benzodioxin-2-yl)-4-([1H]-indol-3-yl)-1-piperidine-ethanol hydrochloride] | ~100 mg/kg | -25% | 45 min | -11% | -12% | % Variation in pressure ([2]; 0.1 mg/kg): -10%; Duration of Activity ([2]; 0.1 mg/kg): 30 min; % Pressure variation ([3]; daily dose 50 mg/kg oral for 9 days, 10th Day, 24 hr. after 1st ad. (so in the source)): -15%
COc1ccc2[nH]cc(C3CCN(CC(O)C4COc5ccccc5O4)CC3)c2c1 (single isomer, unassigned) [Example 2 isomer A, isomer A of (dl) α-(2,3-dihydro-1,4-benzodioxin-2-yl)-4-(5-methoxy-[1H]-indol-3-yl)-1-piperidine-ethanol] | ~500 mg/kg |  | 60 min |  |  | % Variation in pressure ([2]; 1 mg/kg, listed as 2 isomer A): -14%
COc1ccc2[nH]cc(C3CCN(CC(O)C4COc5ccccc5O4)CC3)c2c1 (single isomer, unassigned) [Example 2 isomer B, isomer B of (dl) α-(2,3-dihydro-1,4-benzodioxin-2-yl)-4-(5-methoxy-[1H]-indol-3-yl)-1-piperidine-ethanol] |  |  | 60 min |  |  | % Variation in pressure ([2]; 1 mg/kg, listed as 2 isomer B): -20%
COc1ccc2c(C3CCN(CC(O)C4COc5ccccc5O4)CC3)c(C)[nH]c2c1.Cl (stereo not drawn) [Example 3, α-(2,3-dihydro-1,4-benzodioxin-2-yl)-4-(6-methoxy-2-methyl-[1H]-indol-3-yl)-1-piperidine-ethanol hydrochloride] |  |  | 60 min | -26% | -27% | % Variation in pressure ([2]; 10 mg/kg): -25%; Duration of Activity ([2]; 10 mg/kg): 60 min
OC(CN1CC=C(c2c[nH]c3ccccc23)CC1)C1COc2ccccc2O1 (stereo not drawn) [Example 4, α-(2,3-dihydro-1,4-benzodioxin-2-yl)-4-([1H]-indol-3-yl)-1,2,3,6-tetrahydro-1-pyridine-ethanol] |  |  |  | -10% | -18% | 
Cn1cc(C2CCN(CC(O)C3COc4ccccc4O3)CC2)c2ccccc21 (stereo not drawn) [Example 5, α-(2,3-dihydro-1,4-benzodioxin-2-yl)-4-(1-methyl-[1H]-indol-3-yl)-1-piperidine-ethanol] | ~250 mg/kg | -10% | 30 min |  |  | 
